This is an account of results in US20250319078A1, “METHOD FOR SYNERGISTIC ENHANCEMENT OF REMYELINATION VIA MODULATION OF RXR AND A HETERODIMERIC PARTNER” (THE SCRIPPS RESEARCH INSTITUTE, priority 2022, published 2025).

Each structure is given as a SMILES string.

In data set [1] the test system is rat optic nerve derived OPCs. As to the kind of experiment: cell-based OPC differentiation assay quantifying % MBP-positive OLs by immunofluorescence after 6 days of treatment. To be noted: for effect on % T3-induced MBP+OLs in combination with bexarotene (phenocopy of tasin-1, tamoxifen, LXR antagonist): heat maps, average n=3; for activity in enhancing OPC differentiation alone: single agent, without RXR activation. From the text: Combination-based screening and evaluation of LXR modulators. Pairwise screening of bexarotene and partner compounds was done in matrices of 9-12 doses for each and transferred onto 3 separate 384-well plates. […] Heat maps were generated using Prism to highlight impact of the combinations relative to baseline controls.
We evaluated various reported inhibitors of CYP51, TM7SF2 and EBP for their ability to enhance bexarotene-induced remyelination. We quantified activity based on immunofluorescence analysis of % MBP+OLs after 6 days of compound treatment, with vehicle/DMSO, clemastine and triiodothyronine (T3) controls on each plate using rat optic nerve derived OPCs.

The conditions of data set [2]: dose of bexarotene used in the CCMR One trial; read-out: predicted Cmax; cited from earlier work.
Data set [3] relates to LXR. As to the kind of experiment: confocal imaging and line profile analysis of LXR localization in OPCs/oligodendrocytes. The format is cell-based. To be noted: 6 days of treatment; immunofluorescence, confocal imaging. The method, then: Confocal imaging and analysis of LXR expression. […] OPCs were then seeded at a density of 1,000 cells per well, and the plates were incubated at 37° C. with 5% CO2 for 6 d. On day 6, cells were then fixed for 20 min with 4% formaldehyde solution and stained with anti-LXRalpha/beta antibody (cat. #sc-271064, Santa Cruz Biotechnology) in 3% BSA, 0.3% Triton X-100 with overnight incubation at 4° C. The cells were washed and incubated with secondary antibody (Alexa Fluor 488 goat anti-mouse IgG, Life Technologies) and Hoechst 33342 (Invitrogen) for 1 h at room temperature. The cells were washed and plates were sealed and imaged using a Cellomics Cell Insight imaging reader (Thermo). Randomly-selected fields from 6 wells selected at random were imaged at 50× magnification using a Zeiss 780 confocal microscope. 10 cells within images from each treatment group were randomly selected for line profile analysis.
A line profile analysis of fluorescent intensities was performed by drawing an 18.5 μm line through the center of individual cells (n=10), from approximately 2-4 microns beyond the nuclear membrane on each side using the Fiji image processing platform. Fluorescence intensities over distance (μm) was graphed using Prism 9 software (GraphPad).

The conditions of data set [4]: 20 mg daily dose of tamoxifen; cited from earlier work.

Regarding `CC(C)=CCC[C@@H](C)[C@H]1CC=C2C3=C(CC[C@@]21C)[C@@]1(C)CC[C@H](O)C(C)(C)[C@@H]1CC3` [FF-MAS, Follicular fluid meiosis-activating sterol], the “effect on % T3-induced MBP+OLs in combination with bexarotene (phenocopy of tasin-1, tamoxifen, LXR antagonist)” value (“effect on % T3-induced MBP+OLs” for short) in data set [1] is listed as “combines with bexarotene (RXRg agonist) to phenocopy tasin-1, tamoxifen, or an LXR antagonist”. Consider `Cc1cc(C)c(S(=O)(=O)N(CCc2cccc(Br)c2)Cc2ccc(-c3cccc(S(C)(=O)=O)c3)cc2)c(C)c1` [SR9243], for which, in data set [1], the “effect on % T3-induced MBP+OLs” value is “phenocopies GSK2033, FFMAS, tasin-1 and tamoxifen”. As for `CC(C)=CCC[C@@H](C)[C@H]1CC[C@H]2C3=C(CC[C@]12C)[C@@]1(C)CC[C@H](O)C[C@@H]1CC3` [Zymosterol], the “effect on % T3-induced MBP+OLs” value in data set [1] is “phenocopies tasin-1, tamoxifen and LXR agonists”. Turning to `C=C(c1ccc(C(=O)O)cc1)c1cc2c(cc1C)C(C)(C)CCC2(C)C` [bexarotene], in data set [2], the Cmax (as a rule, the highest concentration seen after dosing) is 2600 nM. In addition, the “cell-based OPC differentiation ECmax of bexarotene (concentration required to achieve optimal activity)” value in data set [1] (bexarotene combined with tamoxifen) was about 150 nM.

Take `CC/C(=C(\c1ccccc1)c1ccc(OCCN(C)C)cc1)c1ccccc1` [tamoxifen]: in data set [3], the “localization of LXR following treatment” value is recorded as “significant shift in localization of LXR”. For the same compound, the “steady state plasma concentration” value in data set [4] is recorded as 834 nM. For the same compound, in data set [1], the “activity in enhancing OPC differentiation alone” value was “minimally active”. `COc1ccc(S(=O)(=O)N2CCC(N3CCC(C)CC3)CC2)cc1` [tasin-1]: the “localization of LXR following treatment” value in data set [3] is given as “significant shift in localization of LXR”. Further, the “activity in enhancing OPC differentiation alone” value in data set [1] is on record as “minimally active”.
